These results are taken from patent publication US9861616B2, “Methods for treating respiratory diseases and formulations therefor” (priority 2013, dated 2018).

The test system of experiment [1] is MRSA strains from CF patients. As to the kind of experiment: Microdilution MICs against 40 MRSA strains from CF patients. It counts as cell-based, S. aureus. The method, then: (§1) Two strains each of mucoid P. aeruginosa (both pyocyanin positive) and […] MRSA (only one strain with gold colonies) isolated from patients at a CF clinic were tested. Additionally, 2 B. cepacia strains were acquired, from Hershey Medical Center. All strains were identified by standard methods. Only one strain per patient was tested. MLVA was done on all strains to examine clonality, and confirmed that examination is not taking place on only one or a few clones. Strains will be stored in skim milk at −70° C. until use.
(§2) Original MICs of each strain to CEM-101 and other comparators were tested by CLSI microdilution methodology. Trays were obtained from Trek, Inc., Cleveland, Ohio. Time-kill macrobroth MIC dilution by CLSI was performed for all synergy testing.
In general terms: Broth dilution looks for growth in wells or tubes with falling amounts of substance.

In experiment [2] the test system is P. aeruginosa PSAR 461, PSAR 468. As to the kind of experiment: Time-kill macrobroth MICs. It counts as cell-based. On the procedure: as §2
(§3) Two of the MRSA strains were chosen and tested for synergy, together with the 4 Gram-negative strains mentioned above. Broth macrodilution formed the basis of MICs used in time-kill experiments, as detailed below. The kill kinetics of each drug was tested alone by incubating an initial inoculum of 5×10^5 to 5×10^6 cfu/mL with drug concentrations at the MIC, three dilutions above and three dilutions below the MIC (½, ¼ and ⅛×MIC). Viability counts were performed after 0, 3, 6, 12 and 24 h incubation at 37° C. in a shaking water bath by plating onto trypticase soy-5% sheep blood agar plates.

Experiment [3] deals with B. cepacia BCEP 953, BCEP 954. The experiment is described as follows: Time-kill macrobroth MICs. It counts as cell-based. The method, then:
as §2, §3

A further experiment relates to MRSA SA 2230, SA 2232. The experiment is described as follows: Time-kill macrobroth MICs. It counts as cell-based, S. aureus. The method, then:
as §2, §3

Experiment [4] deals with B. cepacia strains from cystic fibrosis patients. The experiment is described as follows: Macrobroth dilution MICs, CF strains. It counts as cell-based. The following applies: 2 B. cepacia strains from cystic fibrosis patients. On the procedure: as §1, §2
The subject of experiment [5] is P. aeruginosa strains from cystic fibrosis patients. The experiment is described as follows: Macrobroth dilution MICs, CF strains. It counts as cell-based. The following applies: 2 P. aeruginosa strains from cystic fibrosis patients. The method, then: as §1, §2
Setting [6] is: 40 MRSA strains from CF patients.
The mark [7] stands for this setting: Staphylococcus aureus, 40 MRSA strains from CF patients, read-out: MIC50.
Where [8] appears, read: Staphylococcus aureus, 40 MRSA strains from CF patients, read-out: MIC90.

Like-named read-outs stand apart in the source and are kept apart here.

For Teicoplanin, in experiment [1] (setting [6]), the MIC50 was found to be 0.5 mg/L, the MIC90 worked out at 1 mg/L and the “MIC Range” value was 0.25 to 1 µg/mL.

Take `CN(C)c1cc(NC(=O)CNC(C)(C)C)c(O)c2c1C[C@H]1C[C@H]3[C@H](N(C)C)C(O)=C(C(N)=O)C(=O)[C@@]3(O)C(O)=C1C2=O` [Tigecycline]: in experiment [1] (setting [6]), the “MIC Range” value lay within 0.12 to 0.25 µg/mL. In experiment [1] (Staphylococcus aureus, MRSA), the MIC50 was 0.12 mg/L and the MIC90 is 0.25 mg/L.

Consider `CN[C@H](CC(C)C)C(=O)N[C@H]1C(=O)N[C@@H](CC(N)=O)C(=O)N[C@H]2C(=O)N[C@H]3C(=O)N[C@H](C(=O)N[C@H](C(=O)O)c4cc(O)cc(O)c4-c4cc3ccc4O)[C@H](O)c3ccc(c(Cl)c3)Oc3cc2cc(c3O[C@@H]2O[C@H](CO)[C@@H](O)[C@H](O)[C@H]2O[C@H]2C[C@](C)(N)[C@H](O)[C@H](C)O2)Oc2ccc(cc2Cl)[C@H]1O` [Vancomycin], for which the “MIC Range” value in experiment [1] (setting [6]) is 0.5-1^ μg/mL. In experiment [1] (Staphylococcus aureus, MRSA), the MIC50 turned out to be 0.5 mg/L and the MIC90 is 1 mg/L.

In the case of `NC[C@H]1O[C@H](O[C@H]2[C@H](O)[C@@H](O[C@H]3O[C@H](CO)[C@@H](O)[C@H](N)[C@H]3O)[C@H](N)C[C@@H]2N)[C@H](N)C[C@@H]1O` [Tobramycin], the “Time-kill Macrobroth MIC” value is 2.0 mg/L in experiment [2] (strain PSAR 461); 1.0 mg/L in experiment [2] (strain PSAR 468); 128 mg/L in experiment [3] (strain BCEP 953); 128 mg/L in experiment [3] (strain BCEP 954); 4.0 mg/L with MRSA SA 2230, SA 2232 (strain SA 2230); greater than 512 mg/L in the experiment on MRSA SA 2230, SA 2232 (strain SA 2232). The “MIC Range” value in experiment [4] was 128 mg/L; in experiment [5], 0.25 to 1.0 mg/L.

In the case of `CC(=O)NC[C@H]1CN(c2ccc(N3CCOCC3)c(F)c2)C(=O)O1` [Linezolid], the “MIC Range” value in experiment [1] (setting [6]) fell in the range of 1 to 4 µg/mL. For the same molecule, in experiment [1] (setting [7]), the MIC50 stood at 2 mg/L. For the same molecule, in experiment [1] (setting [8]), the MIC90 came to 2 mg/L.

As for `NCC[C@H](O)C(=O)N[C@@H]1C[C@H](N)[C@@H](O[C@H]2O[C@H](CN)[C@@H](O)[C@H](O)[C@H]2O)[C@H](O)[C@H]1O[C@H]1O[C@H](CO)[C@@H](O)[C@H](N)[C@H]1O` [Amikacin], the “Time-kill Macrobroth MIC” value in experiment [2] (strain PSAR 461) stood at 8.0 mg/L; in experiment [2] (strain PSAR 468) it was 4.0 mg/L; in experiment [3] (strain BCEP 953) it was 512 mg/L; in experiment [3] (strain BCEP 954), 256 mg/L; in the experiment on MRSA SA 2230, SA 2232 (strain SA 2230), 32.0 mg/L; with MRSA SA 2230, SA 2232 (strain SA 2232), 64.0 mg/L. Moreover, the “MIC Range” value was 256 mg/L in experiment [4] and 2 to 8 mg/L in experiment [5].

Consider `CCCCCCCCCC(=O)N[C@@H](Cc1c[nH]c2ccccc12)C(=O)N[C@H](CC(N)=O)C(=O)N[C@@H](CC(=O)O)C(=O)N[C@@H]1C(=O)NCC(=O)N[C@@H](CCCN)C(=O)N[C@@H](CC(=O)O)C(=O)N[C@H](C)C(=O)N[C@@H](CC(=O)O)C(=O)NCC(=O)N[C@H](CO)C(=O)N[C@@H]([C@H](C)CC(=O)O)C(=O)N[C@@H](CC(=O)c2ccccc2N)C(=O)O[C@@H]1C` [Daptomycin], for which the “MIC Range” value in experiment [1] (setting [6]) is listed as 0.5-1^ μg/mL. Further, the MIC50 in experiment [1] (setting [7]) worked out at 0.5 mg/L. Besides, the MIC90 in experiment [1] (setting [8]) was 1 mg/L.

As usually defined, the MIC50 is the lowest concentration that inhibits either 50% of growth or 50% of the strains tested, depending on the study. As a reminder, the MIC90 is the lowest concentration that inhibits either 90% of growth or 90% of the strains tested, depending on the study.
